In patent US12697330B2, “Therapeutic methods using vadadustat” (Akebia Therapeutics, Inc., priority 2021, dated 2026):

How the values were obtained:
[1] = system: erythropoietin (EPO); test: Phase 2 study, Main Study: pharmacodynamics, Baseline-Unadjusted serum EPO concentration; type: in vivo, human
Protocol: (§1) PK/PD Endpoints. An exposure-response analysis of vadadustat and PD measures were conducted as deemed appropriate. The PK parameters included (but were not limited to) the following: area under concentration-time curve from dosing to last measurable concentration (AUClast), area under concentration-time curve from dosing to infinity (AUCinf), Cmax, apparent total body clearance (CL/F), apparent volume of distribution (Vd/F), and terminal half-life (t1/2). The PD parameters included (but were not limited to) the following: EPO, reticulocytes, iron, ferritin, TIBC, and hepcidin.
(§2) PK population: included all randomized subjects who received study drug (vadadustat or epoetin alfa) and had enough drug concentrations to estimate AUC and Cmax. Analysis of this population was based on the dose amount taken at the date of PK sampling for the vadadustat group.
(§3) PD parameters for serum EPO concentration are presented by epoetin alfa stratification for vadadustat treatment groups in Table 7, Table 8a and Table 8b (baseline-unadjusted) and Table 9, Table 10a and Table 10b (baseline-adjusted).

[2] = system: erythropoietin (EPO); test: Phase 2 study, Main Study: pharmacodynamics, Baseline-Adjusted serum EPO concentration; type: in vivo, human
Protocol: as §1, §2, §3

[3] = Vada 150 mg, Week 11, High Epoetin Alfa Stratum >90 to <300 U/kg/week
[4] = Vada 150 mg, Week 11, Low Epoetin Alfa Stratum ≤90 U/kg/week
[5] = Vada 300 mg, Week 1 + 1, High Epoetin Alfa Stratum >90 to <300 U/kg/week
[6] = Vada 300 mg, Week 1 + 1, Low Epoetin Alfa Stratum ≤90 U/kg/week
[7] = Vada 300 mg, Week 1, High Epoetin Alfa Stratum >90 to <300 U/kg/week
[8] = Vada 300 mg, Week 1, Low Epoetin Alfa Stratum ≤90 U/kg/week
[9] = Vada 300 mg, Week 11, High Epoetin Alfa Stratum >90 to <300 U/kg/week
[10] = Vada 300 mg, Week 11, Low Epoetin Alfa Stratum ≤90 U/kg/week
[11] = Vada 300 mg, Week 13, High Epoetin Alfa Stratum >90 to <300 U/kg/week
[12] = Vada 450 mg, Week 1 + 1, High Epoetin Alfa Stratum >90 to <300 U/kg/week
[13] = Vada 450 mg, Week 1 + 1, Low Epoetin Alfa Stratum ≤90 U/kg/week
[14] = Vada 450 mg, Week 1, High Epoetin Alfa Stratum >90 to <300 U/kg/week
[15] = Vada 450 mg, Week 1, Low Epoetin Alfa Stratum ≤90 U/kg/week
[16] = Vada 450 mg, Week 11, High Epoetin Alfa Stratum >90 to <300 U/kg/week
[17] = Vada 450 mg, Week 11, Low Epoetin Alfa Stratum ≤90 U/kg/week
[18] = Vada 450 mg, Week 13, Low Epoetin Alfa Stratum ≤90 U/kg/week
[19] = Vada 600 mg, Week 1 + 1, High Epoetin Alfa Stratum >90 to <300 U/kg/week
[20] = Vada 600 mg, Week 1, High Epoetin Alfa Stratum >90 to <300 U/kg/week
[21] = Vada 600 mg, Week 11, High Epoetin Alfa Stratum >90 to <300 U/kg/week
[22] = Vada 600 mg, Week 11, Low Epoetin Alfa Stratum ≤90 U/kg/week
[23] = Vada 600 mg, Week 13, High Epoetin Alfa Stratum >90 to <300 U/kg/week
[24] = Vada 600 mg, Week 13, Low Epoetin Alfa Stratum ≤90 U/kg/week
[25] = Vada 750 mg, Week 11, High Epoetin Alfa Stratum >90 to <300 U/kg/week
[26] = Vada 750 mg, Week 11, Low Epoetin Alfa Stratum ≤90 U/kg/week
[27] = Vada 750 mg, Week 13, High Epoetin Alfa Stratum >90 to <300 U/kg/week
[28] = Vada 750 mg, Week 13, Low Epoetin Alfa Stratum ≤90 U/kg/week
[29] = Vada 900 mg, Week 11, High Epoetin Alfa Stratum >90 to <300 U/kg/week
[30] = Vada 900 mg, Week 11, Low Epoetin Alfa Stratum ≤90 U/kg/week

## O=C(O)CNC(=O)c1ncc(-c2cccc(Cl)c2)cc1O [Compound 1, {[5-(3-chlorophenyl)-3-hydroxypyridine-2-carbonyl]amino}acetic acid]
[1]; [3]
  Baseline-Unadjusted serum EPO AUC0-5, Geometric Mean: 143.0 µg·h/mL
  Baseline-Unadjusted serum EPO Cmax, Geometric Mean: 39.0 µg/mL
  Baseline-Unadjusted serum EPO Tmax, Median: 1.63 h
[1]; [4]
  Baseline-Unadjusted serum EPO AUC0-5, Geometric Mean: 37.6 µg·h/mL
  Baseline-Unadjusted serum EPO Cmax, Geometric Mean: 10.7 µg/mL
  Baseline-Unadjusted serum EPO Tmax, Median: 4.78 h
[1]; [5]
  Baseline-Unadjusted serum EPO AUC0-5, Geometric Mean: 74.9 µg·h/mL
  Baseline-Unadjusted serum EPO Cmax, Geometric Mean: 20.5 µg/mL
  Baseline-Unadjusted serum EPO Tmax, Median: 2.02 h
[1]; [6]
  Baseline-Unadjusted serum EPO AUC0-5, Geometric Mean: 65.7 µg·h/mL
  Baseline-Unadjusted serum EPO Cmax, Geometric Mean: 19.3 µg/mL
  Baseline-Unadjusted serum EPO Tmax, Median: 2.75 h
[1]; [7]
  Baseline-Unadjusted serum EPO AUC0-5, Geometric Mean: 56.0 µg·h/mL
  Baseline-Unadjusted serum EPO Cmax, Geometric Mean: 17.5 µg/mL
  Baseline-Unadjusted serum EPO Tmax, Median: 2.00 h
[1]; [8]
  Baseline-Unadjusted serum EPO AUC0-5, Geometric Mean: 58.5 µg·h/mL
  Baseline-Unadjusted serum EPO Cmax, Geometric Mean: 17.6 µg/mL
  Baseline-Unadjusted serum EPO Tmax, Median: 4.50 h
[1]; [9]
  Baseline-Unadjusted serum EPO AUC0-5, Geometric Mean: 84.4 µg·h/mL
  Baseline-Unadjusted serum EPO Cmax, Geometric Mean: 23.5 µg/mL
  Baseline-Unadjusted serum EPO Tmax, Median: 0.97 h
[1]; [10]
  Baseline-Unadjusted serum EPO AUC0-5, Geometric Mean: 65.2 µg·h/mL
  Baseline-Unadjusted serum EPO Cmax, Geometric Mean: 20.0 µg/mL
  Baseline-Unadjusted serum EPO Tmax, Median: 3.29 h
[1]; [11]
  Baseline-Unadjusted serum EPO AUC0-5, Geometric Mean: 125 µg·h/mL
  Baseline-Unadjusted serum EPO Cmax, Geometric Mean: 39.2 µg/mL
  Baseline-Unadjusted serum EPO Tmax, Median: 0 h
[1]; [12]
  Baseline-Unadjusted serum EPO AUC0-5, Geometric Mean: 61.6 µg·h/mL
  Baseline-Unadjusted serum EPO Cmax, Geometric Mean: 18.1 µg/mL
  Baseline-Unadjusted serum EPO Tmax, Median: 0 h
[1]; [13]
  Baseline-Unadjusted serum EPO AUC0-5, Geometric Mean: 80.2 µg·h/mL
  Baseline-Unadjusted serum EPO Cmax, Geometric Mean: 23.9 µg/mL
  Baseline-Unadjusted serum EPO Tmax, Median: 4.51 h
[1]; [14]
  Baseline-Unadjusted serum EPO AUC0-5, Geometric Mean: 79.9 µg·h/mL
  Baseline-Unadjusted serum EPO Cmax, Geometric Mean: 23.4 µg/mL
  Baseline-Unadjusted serum EPO Tmax, Median: 4.53 h
[1]; [15]
  Baseline-Unadjusted serum EPO AUC0-5, Geometric Mean: 76.4 µg·h/mL
  Baseline-Unadjusted serum EPO Cmax, Geometric Mean: 25.5 µg/mL
  Baseline-Unadjusted serum EPO Tmax, Median: 4.50 h
[1]; [16]
  Baseline-Unadjusted serum EPO AUC0-5, Geometric Mean: 97.5 µg·h/mL
  Baseline-Unadjusted serum EPO Cmax, Geometric Mean: 24.9 µg/mL
  Baseline-Unadjusted serum EPO Tmax, Median: 0.88 h
[1]; [17]
  Baseline-Unadjusted serum EPO AUC0-5, Geometric Mean: 65.1 µg·h/mL
  Baseline-Unadjusted serum EPO Cmax, Geometric Mean: 17.7 µg/mL
  Baseline-Unadjusted serum EPO Tmax, Median: 2.08 h
[1]; [18]
  Baseline-Unadjusted serum EPO AUC0-5, Geometric Mean: 88.4 µg·h/mL
  Baseline-Unadjusted serum EPO Cmax, Geometric Mean: 28.8 µg/mL
  Baseline-Unadjusted serum EPO Tmax, Median: 3.94 h
[1]; [19]
  Baseline-Unadjusted serum EPO AUC0-5, Geometric Mean: 89.9 µg·h/mL
  Baseline-Unadjusted serum EPO Cmax, Geometric Mean: 27.2 µg/mL
  Baseline-Unadjusted serum EPO Tmax, Median: 2.47 h
[1]; [20]
  Baseline-Unadjusted serum EPO AUC0-5, Geometric Mean: 102.0 µg·h/mL
  Baseline-Unadjusted serum EPO Cmax, Geometric Mean: 33.2 µg/mL
  Baseline-Unadjusted serum EPO Tmax, Median: 0 h
[1]; [21]
  Baseline-Unadjusted serum EPO AUC0-5, Geometric Mean: 83.2 µg·h/mL
  Baseline-Unadjusted serum EPO Cmax, Geometric Mean: 23.4 µg/mL
  Baseline-Unadjusted serum EPO Tmax, Median: 0.92 h
[1]; [22]
  Baseline-Unadjusted serum EPO AUC0-5, Geometric Mean: 53.8 µg·h/mL
  Baseline-Unadjusted serum EPO Cmax, Geometric Mean: 18.5 µg/mL
  Baseline-Unadjusted serum EPO Tmax, Median: 4.50 h
[1]; [23]
  Baseline-Unadjusted serum EPO AUC0-5, Geometric Mean: 44.0 µg·h/mL
  Baseline-Unadjusted serum EPO Cmax, Geometric Mean: 49.9 µg/mL
  Baseline-Unadjusted serum EPO Tmax, Median: 4.63 h
[1]; [24]
  Baseline-Unadjusted serum EPO AUC0-5, Geometric Mean: 59.4 µg·h/mL
  Baseline-Unadjusted serum EPO Cmax, Geometric Mean: 20.7 µg/mL
  Baseline-Unadjusted serum EPO Tmax, Median: 7.08 h
[1]; [25]
  Baseline-Unadjusted serum EPO AUC0-5, Geometric Mean: 84.6 µg·h/mL
  Baseline-Unadjusted serum EPO Cmax, Geometric Mean: 21.9 µg/mL
  Baseline-Unadjusted serum EPO Tmax, Median: 4.06 h
[1]; [26]
  Baseline-Unadjusted serum EPO AUC0-5, Geometric Mean: 41.3 µg·h/mL
  Baseline-Unadjusted serum EPO Cmax, Geometric Mean: 12.5 µg/mL
  Baseline-Unadjusted serum EPO Tmax, Median: 4.50 h
[1]; [27]
  Baseline-Unadjusted serum EPO AUC0-5, Geometric Mean: 42.9 µg·h/mL
  Baseline-Unadjusted serum EPO Cmax, Geometric Mean: 14.1 µg/mL
  Baseline-Unadjusted serum EPO Tmax, Median: 0 h
[1]; [28]
  Baseline-Unadjusted serum EPO AUC0-5, Geometric Mean: 40.8 µg·h/mL
  Baseline-Unadjusted serum EPO Cmax, Geometric Mean: 13.2 µg/mL
  Baseline-Unadjusted serum EPO Tmax, Median: 4.50 h
[1]; [29]
  Baseline-Unadjusted serum EPO AUC0-5, Geometric Mean: 96.5 µg·h/mL
  Baseline-Unadjusted serum EPO Cmax, Geometric Mean: 30.2 µg/mL
  Baseline-Unadjusted serum EPO Tmax, Median: 0 h
[1]; [30]
  Baseline-Unadjusted serum EPO AUC0-5, Geometric Mean: 81.0 µg·h/mL
  Baseline-Unadjusted serum EPO Cmax, Geometric Mean: 24.4 µg/mL
  Baseline-Unadjusted serum EPO Tmax, Median: 0 h
[2]; [3]
  Baseline-Adjusted Serum EPO Cmax, Geometric Mean: 4.29 µg/mL
  Baseline-Adjusted Serum EPO Tmax, Median: 0 h
[2]; [4]
  Baseline-Adjusted Serum EPO Cmax, Geometric Mean: 4.32 µg/mL
  Baseline-Adjusted Serum EPO Tmax, Median: 4.78 h
[2]; [5]
  Baseline-Adjusted Serum EPO Cmax, Geometric Mean: 7.2 µg/mL
  Baseline-Adjusted Serum EPO Tmax, Median: 0 h
[2]; [6]
  Baseline-Adjusted Serum EPO Cmax, Geometric Mean: 10.1 µg/mL
  Baseline-Adjusted Serum EPO Tmax, Median: 2.00 h
[2]; [7]
  Baseline-Adjusted Serum EPO Cmax, Geometric Mean: 9.1 µg/mL
  Baseline-Adjusted Serum EPO Tmax, Median: 0 h
[2]; [8]
  Baseline-Adjusted Serum EPO Cmax, Geometric Mean: 9.1 µg/mL
  Baseline-Adjusted Serum EPO Tmax, Median: 4.50 h
[2]; [9]
  Baseline-Adjusted Serum EPO Cmax, Geometric Mean: 33.8 µg/mL
  Baseline-Adjusted Serum EPO Tmax, Median: 0 h
[2]; [10]
  Baseline-Adjusted Serum EPO Cmax, Geometric Mean: 14.5 µg/mL
  Baseline-Adjusted Serum EPO Tmax, Median: 1.00 h
[2]; [12]
  Baseline-Adjusted Serum EPO Cmax, Geometric Mean: 10.0 µg/mL
  Baseline-Adjusted Serum EPO Tmax, Median: 0 h
[2]; [13]
  Baseline-Adjusted Serum EPO Cmax, Geometric Mean: 11.8 µg/mL
  Baseline-Adjusted Serum EPO Tmax, Median: 4.50 h
[2]; [14]
  Baseline-Adjusted Serum EPO Cmax, Geometric Mean: 14.0 µg/mL
  Baseline-Adjusted Serum EPO Tmax, Median: 4.50 h
[2]; [15]
  Baseline-Adjusted Serum EPO Cmax, Geometric Mean: 18.1 µg/mL
  Baseline-Adjusted Serum EPO Tmax, Median: 1.75 h
[2]; [16]
  Baseline-Adjusted Serum EPO Cmax, Geometric Mean: 15.5 µg/mL
  Baseline-Adjusted Serum EPO Tmax, Median: 0.88 h
[2]; [17]
  Baseline-Adjusted Serum EPO Cmax, Geometric Mean: 8.00 µg/mL
  Baseline-Adjusted Serum EPO Tmax, Median: 2.08 h
[2]; [18]
  Baseline-Adjusted Serum EPO Cmax, Geometric Mean: 11.4 µg/mL
  Baseline-Adjusted Serum EPO Tmax, Median: 3.94 h
[2]; [19]
  Baseline-Adjusted Serum EPO Cmax, Geometric Mean: 18.9 µg/mL
  Baseline-Adjusted Serum EPO Tmax, Median: 2.47 h
[2]; [20]
  Baseline-Adjusted Serum EPO Cmax, Geometric Mean: 26.0 µg/mL
  Baseline-Adjusted Serum EPO Tmax, Median: 0 h
[2]; [21]
  Baseline-Adjusted Serum EPO Cmax, Geometric Mean: 14.6 µg/mL
  Baseline-Adjusted Serum EPO Tmax, Median: 0.92 h
[2]; [22]
  Baseline-Adjusted Serum EPO Cmax, Geometric Mean: 13.7 µg/mL
  Baseline-Adjusted Serum EPO Tmax, Median: 4.00 h
[2]; [23]
  Baseline-Adjusted Serum EPO Cmax, Geometric Mean: 173.0 µg/mL
  Baseline-Adjusted Serum EPO Tmax, Median: 4.63 h
[2]; [24]
  Baseline-Adjusted Serum EPO Cmax, Geometric Mean: 8.1 µg/mL
  Baseline-Adjusted Serum EPO Tmax, Median: 7.08 h
[2]; [25]
  Baseline-Adjusted Serum EPO Cmax, Geometric Mean: 14.8 µg/mL
  Baseline-Adjusted Serum EPO Tmax, Median: 4.75 h
[2]; [26]
  Baseline-Adjusted Serum EPO Cmax, Geometric Mean: 3.91 µg/mL
  Baseline-Adjusted Serum EPO Tmax, Median: 4.50 h
[2]; [27]
  Baseline-Adjusted Serum EPO Cmax, Geometric Mean: 6.8 µg/mL
  Baseline-Adjusted Serum EPO Tmax, Median: 0 h
[2]; [28]
  Baseline-Adjusted Serum EPO Cmax, Geometric Mean: 7.7 µg/mL
  Baseline-Adjusted Serum EPO Tmax, Median: 4.50 h
[2]; [29]
  Baseline-Adjusted Serum EPO Cmax, Geometric Mean: 21.4 µg/mL
  Baseline-Adjusted Serum EPO Tmax, Median: 0 h
[2]; [30]
  Baseline-Adjusted Serum EPO Cmax, Geometric Mean: 10.8 µg/mL
  Baseline-Adjusted Serum EPO Tmax, Median: 0 h
